Assay results from patent US20240059671A1, “TYROSINE KINASE 2 (TYK2) DEGRADATION COMPOUNDS AND METHODS OF USE” (CULLGEN (SHANGHAI), INC., priority 2020, published 2024).

Target: TYK2 (Homo sapiens, UniProt P29597)
Assay: TYK2 protein degradation in NOMO-1 cells by immunoblotting
Assay type: cell-based
Set-up: endogenous in cells
Conditions: NOMO-1 cells
In short: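 Read-out was densitometry of chemiluminescent TYK2 immunoblot bands from RIPA lysates after SDS-PAGE. Before lysis, NOMO-1 cells cultured in RPMI 1640 plus 10% FBS were treated for 16 h at 0.1, 1, 10, 100 and 1000 nM.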

TYK2, sequence (P29597 whole entry): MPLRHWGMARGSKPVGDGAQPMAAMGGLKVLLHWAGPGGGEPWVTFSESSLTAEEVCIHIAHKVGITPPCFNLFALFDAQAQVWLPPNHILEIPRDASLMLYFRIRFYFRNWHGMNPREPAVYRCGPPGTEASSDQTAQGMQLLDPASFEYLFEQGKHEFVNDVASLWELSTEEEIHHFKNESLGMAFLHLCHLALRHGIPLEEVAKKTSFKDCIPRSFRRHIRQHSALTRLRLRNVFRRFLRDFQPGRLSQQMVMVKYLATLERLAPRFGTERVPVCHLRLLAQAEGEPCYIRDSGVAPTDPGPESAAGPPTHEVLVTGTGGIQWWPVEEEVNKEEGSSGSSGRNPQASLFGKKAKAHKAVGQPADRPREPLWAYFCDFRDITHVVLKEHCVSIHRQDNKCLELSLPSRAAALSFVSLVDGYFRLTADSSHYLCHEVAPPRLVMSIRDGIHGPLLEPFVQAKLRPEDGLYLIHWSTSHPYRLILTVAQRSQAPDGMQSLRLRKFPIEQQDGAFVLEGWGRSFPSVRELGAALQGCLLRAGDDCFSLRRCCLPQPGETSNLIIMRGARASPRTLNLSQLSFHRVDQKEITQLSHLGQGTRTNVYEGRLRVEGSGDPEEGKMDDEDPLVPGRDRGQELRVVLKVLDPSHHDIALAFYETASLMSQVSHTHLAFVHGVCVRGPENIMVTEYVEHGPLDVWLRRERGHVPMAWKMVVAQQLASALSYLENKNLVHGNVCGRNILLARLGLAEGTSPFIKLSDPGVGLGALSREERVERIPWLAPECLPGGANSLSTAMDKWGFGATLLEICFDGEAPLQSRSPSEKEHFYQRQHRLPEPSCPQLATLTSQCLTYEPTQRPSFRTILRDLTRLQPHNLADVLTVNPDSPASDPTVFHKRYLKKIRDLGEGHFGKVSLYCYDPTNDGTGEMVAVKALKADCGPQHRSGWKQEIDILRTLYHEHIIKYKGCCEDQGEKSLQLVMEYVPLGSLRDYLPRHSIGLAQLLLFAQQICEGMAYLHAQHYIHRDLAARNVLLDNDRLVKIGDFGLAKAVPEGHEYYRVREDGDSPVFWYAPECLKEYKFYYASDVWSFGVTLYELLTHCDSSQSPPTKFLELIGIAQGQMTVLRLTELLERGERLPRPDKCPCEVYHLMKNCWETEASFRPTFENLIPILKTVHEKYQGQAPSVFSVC

| TYK2 Degradation (NOMO-1, 100 nM) | TYK2 Degradation (NOMO-1, 10 nM) | SMILES |
| --- | --- | --- |
| C (C: ≤20% TYK2 degradation) |  | CNC(=O)c1nnc(Nc2ccc(CNC(=O)CCC(=O)N[C@H](C(=O)N3C[C@H](O)C[C@H]3C(=O)N[C@@H](C)c3ccc(-c4scnc4C)cc3)C(C)(C)C)cn2)cc1Nc1cccc(-c2ncn(C)n2)c1OC [CPD-128, N1-((S)-1-((2S,4R)-4-Hydroxy-2-(((S)-1-(4-(4-methylthiazol-5-yl)phenyl)ethyl)carbamoyl)pyrrolidin-1-yl)-3,3-dimethyl-1-oxobutan-2-yl)-N4-((6-((5-((2-methoxy-3-(1-methyl-1H-1,2,4-triazol-3-yl)phenyl)amino)-6-(methylcarbamoyl)pyridazin-3-yl)amino)pyridin-3-yl)methyl)succinamide] |
| A (A: ≥60% TYK2 degradation) | A (A: ≥60% TYK2 degradation) | CNC(=O)c1nnc(Nc2ccc(N3CCN(C(=O)CCCCCCCC(=O)N[C@H](C(=O)N4C[C@H](O)C[C@H]4C(=O)N[C@@H](C)c4ccc(-c5scnc5C)cc4)C(C)(C)C)CC3)cn2)cc1Nc1cccc(-c2ncn(C)n2)c1OC [CPD-115, 6-((5-(4-(9-(((S)-1-((2S,4R)-4-hydroxy-2-(((S)-1-(4-(4-methylthiazol-5-yl)phenyl)ethyl)carbamoyl)pyrrolidin-1-yl)-3,3-dimethyl-1-oxobutan-2-yl)amino)-9-oxononanoyl)piperazin-1-yl)pyridin-2-yl)amino)-4-((2-methoxy-3-(1-methyl-1H-1,2,4-triazol-3-yl)phenyl)amino)-N-methylpyridazine-3-carboxamide] |
| C (C: ≤20% TYK2 degradation) |  | CNC(=O)c1nnc(Nc2ccc(C(=O)NCCC(=O)N[C@H](C(=O)N3C[C@H](O)C[C@H]3C(=O)N[C@@H](C)c3ccc(-c4scnc4C)cc3)C(C)(C)C)cn2)cc1Nc1cccc(-c2ncn(C)n2)c1OC [CPD-138, 6-((5-((3-(((S)-1-((2S,4R)-4-Hydroxy-2-(((S)-1-(4-(4-methylthiazol-5-yl)phenyl)ethyl)carbamoyl)pyrrolidin-1-yl)-3,3-dimethyl-1-oxobutan-2-yl)amino)-3-oxopropyl)carbamoyl)pyridin-2-yl)amino)-4-((2-methoxy-3-(1-methyl-1H-1,2,4-triazol-3-yl)phenyl)amino)-N-methylpyridazine-3-carboxamide] |
| A (A: ≥60% TYK2 degradation) | A (A: ≥60% TYK2 degradation) | CNC(=O)c1nnc(Nc2ccc(C#CC3CN(C(=O)CCCCCCC(=O)N[C@H](C(=O)N4C[C@H](O)C[C@H]4C(=O)N[C@@H](C)c4ccc(-c5scnc5C)cc4)C(C)(C)C)C3)cn2)cc1Nc1cccc(-c2ncn(C)n2)c1OC [CPD-125, 6-((5-((1-(8-(((S)-1-((2S,4R)-4-hydroxy-2-(((S)-1-(4-(4-methylthiazol-5-yl)phenyl)ethyl)carbamoyl)pyrrolidin-1-yl)-3,3-dimethyl-1-oxobutan-2-yl)amino)-8-oxooctanoyl)azetidin-3-yl)ethynyl)pyridin-2-yl)amino)-4-((2-methoxy-3-(1-methyl-H-1,2,4-triazol-3-yl)phenyl)amino)-N-methylpyridazine-3-carboxamide] |
| A (A: ≥60% TYK2 degradation) | A (A: ≥60% TYK2 degradation) | CNC(=O)c1nnc(Nc2ccc(C(=O)NCCCCCCCC(=O)N[C@H](C(=O)N3C[C@H](O)C[C@H]3C(=O)N[C@@H](C)c3ccc(-c4scnc4C)cc3)C(C)(C)C)cn2)cc1Nc1cccc(-c2ncn(C)n2)c1OC [CPD-143, 6-((5-((8-(((S)-1-((2S,4R)-4-hydroxy-2-(((S)-1-(4-(4-methylthiazol-5-yl)phenyl)ethyl)carbamoyl)pyrrolidin-1-yl)-3,3-dimethyl-1-oxobutan-2-yl)amino)-8-oxooctyl)carbamoyl)pyridin-2-yl)amino)-4-((2-methoxy-3-(1-methyl-1H-1,2,4-triazol-3-yl)phenyl)amino)-N-methylpyridazine-3-carboxamide] |
| C (C: ≤20% TYK2 degradation) |  | CNC(=O)c1nnc(Nc2ccc(C#CC3CCN(CCCCC(=O)N[C@H](C(=O)N4C[C@H](O)C[C@H]4C(=O)N[C@@H](C)c4ccc(-c5scnc5C)cc4)C(C)(C)C)CC3)cn2)cc1Nc1cccc(-c2ncn(C)n2)c1OC [CPD-160, 6-((5-((1-(5-(((S)-1-((2S,4R)-4-hydroxy-2-(((S)-1-(4-(4-methylthiazol-5-yl)phenyl)ethyl)carbamoyl)pyrrolidin-1-yl)-3,3-dimethyl-1-oxobutan-2-yl)amino)-5-oxopentyl)piperidin-4-yl)ethynyl)pyridin-2-yl)amino)-4-((2-methoxy-3-(1-methyl-1H-1,2,4-triazol-3-yl)phenyl)amino)-N-methylpyridazine-3-carboxamide] |
| A (A: ≥60% TYK2 degradation) | A (A: ≥60% TYK2 degradation) | CNC(=O)c1nnc(Nc2ccc(C#CC3CN(C(=O)CCCCCCCC(=O)N[C@H](C(=O)N4C[C@H](O)C[C@H]4C(=O)N[C@@H](C)c4ccc(-c5scnc5C)cc4)C(C)(C)C)C3)cn2)cc1Nc1cccc(-c2ncn(C)n2)c1OC [CPD-126, 6-((5-((1-(9-(((S)-1-((2S,4R)-4-hydroxy-2-(((S)-1-(4-(4-methylthiazol-5-yl)phenyl)ethyl)carbamoyl)pyrrolidin-1-yl)-3,3-dimethyl-1-oxobutan-2-yl)amino)-9-oxononanoyl)azetidin-3-yl)ethynyl)pyridin-2-yl)amino)-4-((2-methoxy-3-(1-methyl-H-1,2,4-triazol-3-yl)phenyl)amino)-N-methylpyridazine-3-carboxamide] |
| A (A: ≥60% TYK2 degradation) | A (A: ≥60% TYK2 degradation) | CNC(=O)c1nnc(Nc2ccc(C#CC3CN(C(=O)CCCCCCCCC(=O)N[C@H](C(=O)N4C[C@H](O)C[C@H]4C(=O)N[C@@H](C)c4ccc(-c5scnc5C)cc4)C(C)(C)C)C3)cn2)cc1Nc1cccc(-c2ncn(C)n2)c1OC [CPD-127, 6-((5-((1-(10-(((S)-1-((2S,4R)-4-hydroxy-2-(((S)-1-(4-(4-methylthiazol-5-yl)phenyl)ethyl)carbamoyl)pyrrolidin-1-yl)-3,3-dimethyl-1-oxobutan-2-yl)amino)-10-oxodecanoyl)azetidin-3-yl)ethynyl)pyridin-2-yl)amino)-4-((2-methoxy-3-(1-methyl-1H-1,2,4-triazol-3-yl)phenyl)amino)-N-methylpyridazine-3-carboxamide] |

| SMILES | TYK2 Degradation (NOMO-1, 100 nM) | TYK2 Degradation (NOMO-1, 10 nM) |
| --- | --- | --- |
| CNC(=O)c1nnc(Nc2ccc(C(=O)NCCCCCCNc3cccc4c3C(=O)N(C3CCC(=O)NC3=O)C4=O)cn2)cc1Nc1cccc(-c2ncn(C)n2)c1OC (centres unmarked) [CPD-156, 6-((5-((6-((2-(2,6-Dioxopiperidin-3-yl)-1,3-dioxoisoindolin-4-yl)amino)hexyl)carbamoyl)pyridin-2-yl)amino)-4-((2-methoxy-3-(1-methyl-1H-1,2,4-triazol-3-yl)phenyl)amino)-N-methylpyridazine-3-carboxamide] | B (B: <60% TYK2 degradation, and >20% TYK2 degradation) |  |
